Experimental data published in patent US20200239561A1, “NODAL REGULATION OF CANCER DRUG RESISTANCE GENE” (TaiRx Inc., priority 2019, published 2020).

Columns and labels:
Nodal protein [1] = test: Western blot of Nodal protein (ProNodal) in acute lymphoblastic leukemia cell line REH; assay type: cell-based; conditions: REH cells, 72 hr treatment
Text: Treatment of the cells for 72 hr with CVM-1125 reduced Nodal protein expression by 38%, while under the same treatment regimen the drug Ara-c reduced Nodal protein expression by 51%, Ws65 reduced Nodal protein by 90%, a combination of CVM-1125 plus WS65 reduced Nodal protein by 75% and Ara-c plus WS65 reduced Nodal protein by 69%.

ABCA1 protein = test: Western blot of ABCA1 protein expression in SK-MEL28 melanoma cells; assay type: cell-based, human; conditions: 72 hours treatment
Procedure: (§1) Human metastatic melanoma cell lines C8161, SK-MEL28 and A375SM-L1 and melanocytes were treated with anti-Nodal or anti-ABCA1 antibodies followed by secondary fluorescent antibodies. (A) Cells were viewed using a Zeiss Axioskop 2 microscope and photomicrographs taken comparing immunofluorescence staining of the melanoma cells versus melanocytes (negative control) and cells treated with secondary antibody only (antibody control; magnification 63×). All three aggressive melanoma cell lines express both Nodal and ABCA1 proteins. (B) Furthermore, whole cell protein lysates were prepared from the C8161, SK-MEL28 and A375SM-L1 cells and Western blot analysis verified the expression of both Nodal and ABCA1 proteins at their appropriate molecular weight equivalence. β-Actin protein was used to determine the equal loading of total protein per sample per lane on the Western blot.
(§2) (A) After 72 hr treatment with WS65, an anti-Nodal inhibitory antibody, there is a 94% reduction in Nodal protein expression and 55% reduction in the ABCA1 protein expression. […] Similar treatment with WS65 results in a 55% decrease in Nodal protein expression and 38% decrease in ABCA1 protein expression while treatment with both CVM-1125 and WS65 for 72 hr appears to synergistically reduce the expression of Nodal protein by 81% and ABCA1 protein by 99%.

Nodal protein [2] = test: Western blot of Nodal protein expression in SK-MEL28 melanoma cells; assay type: cell-based, human; conditions: 72 hours treatment
Procedure: as §1, §2

Nodal = Nodal in experimental TNBC models after doxorubicin; conditions: three experimental TNBC models expressing high levels of Nodal

Structure (SMILES) | reduced Nodal protein expression (Nodal protein [1]) [%] | decrease in ABCA1 protein expression (ABCA1 protein) [%] | decrease in Nodal protein expression (Nodal protein [2]) [%] | effect on the Nodal target (Nodal)
COc1ccc2[nH]c(-c3cccc(F)c3)cc(=O)c2c1O [CVM-1125] | 38 | 14 | 19 | –
COc1cccc2c1C(=O)c1c(O)c3c(c(O)c1C2=O)C[C@@](O)(C(=O)CO)C[C@@H]3O[C@H]1C[C@H](N)[C@H](O)[C@H](C)O1 [doxorubicin] | – | – | – | did not effectively diminish
Nc1ccn([C@@H]2O[C@H](CO)[C@@H](O)[C@@H]2O)c(=O)n1 [Ara-c, reference compound] | 51 | – | – | –
